Reference: patent US20080194641A1, “Pesticidal Mixtures” (BASF Aktiengesellschaft, priority 2005, published 2008)

Key:
tobacco budworm = assay: Leaf-dip bioassay on cotton leaves, larval mortality; format: in vivo; details: Heliothis virescens, 120 h, read-out: % Mortality of Tobacco Budworm
Description: (§1) Potato plants for Colorado potato beetle and two-leaf cotton plants for tobacco budworm were utilized for bioassays. Excised plant leaves were dipped into 1:1 acetone/water dilutions of the active compounds. After the leaves had dried, they were individually placed onto water-moistened filter paper on the bottoms of Petri dishes. Each dish was infested with 5-7 larvae and covered with a lid. Each treatment dilution was replicated 4 times. Test dishes were held at approximately 27° C. and 60% humidity. Numbers of live and morbid larvae were assessed in each dish at 5 days after treatment application, and percent mortality was calculated.
(§2) To determine if an insecticidal mixture was synergistic, Limpel's formula was used:
(§3) E=Expected % mortality of the mixture X=% mortality of compound X, as measured independently Y=% mortality of compound Y, as measured independently
(§4) Synergism was evident if the % observed mortality for the mixture was greater than the % expected mortality.

Colorado potato beetle = assay: Leaf-dip bioassay on potato leaves, larval mortality; format: in vivo; details: Leptinotarsa decemlineata, 120 h
Description: as §1, §2, §3, §4

[1] = read-out: % Mortality of Colorado Potato Beetle

SMILES: CC1(C)C(C=C(Cl)Cl)C1C(=O)OC(C#N)c1cccc(Oc2ccccc2)c1 (stereo not drawn) [alpha-cypermethrin, reference compound]
- mortality at 0.03 ppm (tobacco budworm): 0%
- mortality at 0.06 ppm (tobacco budworm): 8.9%
- mortality at 0.03 ppm (Colorado potato beetle; [1]): 0%
- mortality at 0.06 ppm (Colorado potato beetle; [1]): 4.2%

SMILES: CCN/C(=N\Nc1c(Cl)cc(C(F)(F)F)cc1Cl)C(C)(C)C [I-1, N-ethyl-2,2-dimethylpropionamide-2-(2,6-dichloro-α,α,α-trifluoro-p-tolyl)-hydrazone]
- mortality at 100 ppm (tobacco budworm): 0%
- mortality at 300 ppm (tobacco budworm): 16%
- mortality at 100 ppm (Colorado potato beetle; dose rate 100 ppm, 5 days after treatment): 0%
- mortality at 300 ppm (Colorado potato beetle; dose rate 300 ppm, 5 days after treatment): 20.8%

SMILES: O=[N+]([O-])NC1=NCCN1Cc1ccc(Cl)nc1 [imidacloprid, reference compound]
- mortality at 0.06 ppm (Colorado potato beetle; [1]): 0%

SMILES: CCN/C(=N\Nc1c(Cl)cc(C(F)(F)F)cc1Cl)C1(C)CC1(Cl)Cl (stereo not drawn) [I-2, N-Ethyl-2,2-dichloro-1-methylcyclopropane-carboxamide-2-(2,6-dichloro-α,α,α-tri-fluoro-p-tolyl)hydrazone]
- mortality at 60 ppm (tobacco budworm): 5.4%
- mortality at 100 ppm (tobacco budworm): 12.5%
- mortality at 30 ppm (Colorado potato beetle; dose rate 30 ppm, 5 days after treatment): 6.3%
- mortality at 60 ppm (Colorado potato beetle; dose rate 60 ppm, 5 days after treatment): 39.6%
